Measured values from ChEMBL document CHEMBL4725306, “Discovery of (3S,4S)-3-methyl-3-(4-fluorophenyl)-4-(4-(1,1,1,3,3,3-hexafluoro-2-hydroxyprop-2-yl)phenyl)pyrrolidines as novel RORγt inverse agonists” (Bioorg Med Chem Lett, 2020).

Tests used:
[1] = biological target: T1, Nuclear receptor subfamily 1 group I member 2 (Homo sapiens, UniProt O75469); assay: Activation of PXR (unknown origin)
T1 sequence (O75469 whole entry): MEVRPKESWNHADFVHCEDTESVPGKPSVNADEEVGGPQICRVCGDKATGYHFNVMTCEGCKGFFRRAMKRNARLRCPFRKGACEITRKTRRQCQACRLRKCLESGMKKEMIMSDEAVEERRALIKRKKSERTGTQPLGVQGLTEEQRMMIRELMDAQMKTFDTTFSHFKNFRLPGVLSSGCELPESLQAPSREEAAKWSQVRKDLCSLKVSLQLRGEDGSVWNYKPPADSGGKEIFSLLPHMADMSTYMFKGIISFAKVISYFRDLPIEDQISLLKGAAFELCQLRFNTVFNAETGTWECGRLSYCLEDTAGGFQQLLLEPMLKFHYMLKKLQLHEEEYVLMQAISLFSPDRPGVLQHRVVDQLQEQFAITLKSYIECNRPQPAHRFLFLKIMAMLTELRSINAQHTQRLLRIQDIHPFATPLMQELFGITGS

PXR = biological target: T2, PXR (Homo sapiens, UniProt O75469); assay: (§1) Activation of PXR (unknown origin) relative to rifampicin; conditions: read-out: %max
T2 sequence (O75469 whole entry): T1 sequence (O75469 whole entry)

[2] = Metabolic stability in human liver microsomes assessed as parent compound remaining incubated for 10 mins; type: ADME, Microsome; conditions: read-out: Stabilty
[3] = Metabolic stability in mouse liver microsomes assessed as parent compound remaining incubated for 10 mins; type: ADME, Microsome; conditions: read-out: Stabilty
[4] = biological target: T1, Nuclear receptor subfamily 1 group I member 2; assay: as §1
[5] = biological target: T3, Nuclear receptor ROR-gamma (Homo sapiens, UniProt P51449); assay: Inverse agonist activity at RORgammat (unknown origin) expressed in Jurkat cells by reporter assay; type: cell-based
T3 sequence (P51449 whole entry): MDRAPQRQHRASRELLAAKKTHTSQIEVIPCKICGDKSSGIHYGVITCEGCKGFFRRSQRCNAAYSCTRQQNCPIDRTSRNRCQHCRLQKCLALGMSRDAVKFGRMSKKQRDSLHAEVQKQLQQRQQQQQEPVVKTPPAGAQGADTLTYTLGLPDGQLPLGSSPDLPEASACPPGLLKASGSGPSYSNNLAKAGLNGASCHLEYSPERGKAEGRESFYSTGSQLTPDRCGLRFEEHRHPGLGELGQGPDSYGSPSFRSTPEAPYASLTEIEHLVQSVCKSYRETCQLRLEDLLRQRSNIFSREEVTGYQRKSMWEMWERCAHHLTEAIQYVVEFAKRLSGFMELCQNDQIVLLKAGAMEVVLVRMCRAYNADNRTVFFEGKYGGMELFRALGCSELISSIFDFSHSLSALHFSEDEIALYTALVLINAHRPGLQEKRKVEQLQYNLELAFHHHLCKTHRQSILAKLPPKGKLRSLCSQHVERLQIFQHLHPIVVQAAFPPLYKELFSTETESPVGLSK

[6] = biological target: T4, Nuclear receptor ROR-alpha (Homo sapiens, UniProt P35398); assay: Inverse agonist activity at ROR-alpha (unknown origin) expressed in Jurkat cells by gal4 reporter assay; type: cell-based
T4 sequence (P35398 whole entry): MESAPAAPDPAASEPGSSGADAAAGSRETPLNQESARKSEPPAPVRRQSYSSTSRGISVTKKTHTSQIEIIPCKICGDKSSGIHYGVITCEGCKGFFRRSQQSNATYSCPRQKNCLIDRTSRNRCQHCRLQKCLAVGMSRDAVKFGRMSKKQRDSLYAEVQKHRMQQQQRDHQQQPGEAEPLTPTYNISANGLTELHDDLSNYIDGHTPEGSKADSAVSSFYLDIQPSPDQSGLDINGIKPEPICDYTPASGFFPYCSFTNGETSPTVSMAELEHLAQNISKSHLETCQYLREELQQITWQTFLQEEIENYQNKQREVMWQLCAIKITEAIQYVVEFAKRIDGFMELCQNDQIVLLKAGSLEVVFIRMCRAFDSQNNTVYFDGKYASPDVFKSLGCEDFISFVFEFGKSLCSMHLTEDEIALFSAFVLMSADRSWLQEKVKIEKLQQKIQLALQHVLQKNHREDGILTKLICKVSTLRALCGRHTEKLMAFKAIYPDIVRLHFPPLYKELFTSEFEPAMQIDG

[7] = biological target: T5, Nuclear receptor ROR-beta (Homo sapiens, UniProt Q92753); assay: Inverse agonist activity at ROR-beta (unknown origin) expressed in Jurkat cells by gal4 reporter assay; type: cell-based
T5 sequence (Q92753 whole entry): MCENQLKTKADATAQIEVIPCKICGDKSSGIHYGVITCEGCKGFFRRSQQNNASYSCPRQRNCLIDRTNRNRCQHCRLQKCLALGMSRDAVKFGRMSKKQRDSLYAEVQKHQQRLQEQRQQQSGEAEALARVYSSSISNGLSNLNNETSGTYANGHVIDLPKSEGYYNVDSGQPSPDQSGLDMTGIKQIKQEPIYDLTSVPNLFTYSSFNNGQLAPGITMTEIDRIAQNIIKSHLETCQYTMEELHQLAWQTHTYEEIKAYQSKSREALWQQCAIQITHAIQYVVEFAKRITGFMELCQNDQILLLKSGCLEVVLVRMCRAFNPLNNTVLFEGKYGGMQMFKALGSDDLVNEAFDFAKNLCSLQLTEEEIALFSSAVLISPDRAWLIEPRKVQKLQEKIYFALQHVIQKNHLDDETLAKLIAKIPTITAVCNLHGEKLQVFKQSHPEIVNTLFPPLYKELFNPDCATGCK

| EC50 [1] [nM] | Emax (PXR) [%] | remaining at 10 min [2] [%] | remaining at 10 min [3] [%] | %max [4] [%] | EC50 [5] [nM] | EC50 [6] [nM] | EC50 [7] [nM] | Compound |
| --- | --- | --- | --- | --- | --- | --- | --- | --- |
| 472 | 80 | 58 | 17 | – | – | – | – | C[C@@]1(c2ccc(F)cc2)CN(C(=O)NCc2ccccc2)C[C@@H]1c1ccc(C(O)(C(F)(F)F)C(F)(F)F)cc1 |
| 1080 | 61 | 86 | 81 | – | – | – | – | CC(=O)N1CCC(C(=O)N2C[C@@H](c3ccc(C(O)(C(F)(F)F)C(F)(F)F)cc3)[C@@](C)(c3ccc(F)cc3)C2)CC1 |
| > 50000 | 15 | – | – | – | – | – | – | CC(=O)N1CCC(C(=O)N2C[C@@H](c3ccc(C(F)(C(F)(F)F)C(F)(F)F)cc3)[C@@](C)(c3ccc(F)cc3)C2)CC1 |
| – | – | 86 | 82 | – | – | – | – | C[C@]1(c2ccc(F)cc2)CN(C(=O)C2CCN(C(=O)CO)CC2)C[C@H]1c1ccc(C(O)(C(F)(F)F)C(F)(F)F)cc1 |
| – | – | 11 | 1 | – | – | – | – | C[C@]1(c2ccc(F)cc2)CN(C(=O)NCc2ccncc2)C[C@H]1c1ccc(C(O)(C(F)(F)F)C(F)(F)F)cc1 |
| – | – | 89 | 75 | – | – | – | – | CC(=O)N1CCC(C(=O)N2C[C@@H](c3ccc(C(O)(C(F)(F)F)C(F)(F)F)cc3)[C@@](C)(c3ccccc3)C2)CC1 |
| 559 | – | 73 | 67 | 98 | – | – | – | C[C@]1(c2ccc(F)cc2)CN(C(=O)NCc2ccccc2)C[C@H]1c1ccc(C(O)(C(F)(F)F)C(F)(F)F)cc1 |
| – | – | 76 | 51 | – | 74 | – | – | C[C@]1(c2ccc(F)cc2)CN(C(=O)NCc2ccc(C#N)cc2)C[C@H]1c1ccc(C(O)(C(F)(F)F)C(F)(F)F)cc1 |
| 495 | 46 | 80 | 79 | – | – | > 40000 | > 40000 | C[C@]1(c2ccc(F)cc2)CN(C(=O)C2CCN(C(=O)CC#N)CC2)C[C@H]1c1ccc(C(O)(C(F)(F)F)C(F)(F)F)cc1 |
| – | – | 54 | 65 | – | – | – | – | C[C@]1(c2ccc(F)cc2)CN(C(=O)NCc2ccc3c(c2)OCO3)C[C@H]1c1ccc(C(O)(C(F)(F)F)C(F)(F)F)cc1 |
| 995 | 73 | 91 | 87 | – | – | – | – | C[C@]1(c2ccc(F)cc2)CN(C(=O)C2CCN(C(=O)C(N)=O)CC2)C[C@H]1c1ccc(C(O)(C(F)(F)F)C(F)(F)F)cc1 |
| 151 | 78 | 90 | 80 | – | – | – | – | C[C@]1(c2ccc(F)cc2)CN(C(=O)C2CCN(S(C)(=O)=O)CC2)C[C@H]1c1ccc(C(O)(C(F)(F)F)C(F)(F)F)cc1 |
| 1060 | 72 | 97 | 100 | – | – | – | – | C[C@]1(c2ccc(F)cc2)CN(C(=O)C2CCN(C(N)=O)CC2)C[C@H]1c1ccc(C(O)(C(F)(F)F)C(F)(F)F)cc1 |
| 1550 | 52 | 54 | 49 | – | – | – | – | COCC(=O)N1CCC(C(=O)N2C[C@@H](c3ccc(C(O)(C(F)(F)F)C(F)(F)F)cc3)[C@@](C)(c3ccc(F)cc3)C2)CC1 |
| 5 | 100 | 32 | 51 | – | – | – | – | CCS(=O)(=O)c1ccc(CNC(=O)N2C[C@@H](c3ccc(C(O)(C(F)(F)F)C(F)(F)F)cc3)[C@@](C)(c3ccc(F)cc3)C2)cc1 |
| 189 | 84 | 68 | 67 | – | – | – | – | COc1ccc(CNC(=O)N2C[C@@H](c3ccc(C(O)(C(F)(F)F)C(F)(F)F)cc3)[C@@](C)(c3ccc(F)cc3)C2)cc1 |
| – | – | 74 | 79 | – | – | – | – | CC(=O)N1CCC(C(=O)N2C[C@H](c3ccc(C(O)(C(F)(F)F)C(F)(F)F)cc3)[C@](C)(c3ccccc3)C2)CC1 |
| 361 | 110 | – | – | – | – | – | – | CC(=O)N1C[C@@H](c2ccc(C(O)(C(F)(F)F)C(F)(F)F)cc2)[C@@](C)(c2ccccc2)C1 (racemic) |
| 740 | 93 | – | – | – | – | – | – | C[C@]1(c2ccccc2)CN(C(=O)c2ccccc2)C[C@H]1c1ccc(C(O)(C(F)(F)F)C(F)(F)F)cc1 (racemic) |
| 257 | 110 | – | – | – | – | – | – | C[C@]1(c2ccccc2)CN(S(C)(=O)=O)C[C@H]1c1ccc(C(O)(C(F)(F)F)C(F)(F)F)cc1 (racemic) |
| 474 | 79 | – | – | – | – | – | – | C[C@]1(c2ccc(F)cc2)CN(C(=O)NCc2ccccc2)C[C@H]1c1ccc(C(O)(C(F)(F)F)C(F)(F)F)cc1 (racemic) |
| 1250 | 39 | – | – | – | 7910 | – | – | C[C@]1(c2ccccc2)CNC[C@H]1c1ccc(C(O)(C(F)(F)F)C(F)(F)F)cc1 (racemic) |
| 1780 | 73 | – | – | – | – | – | – | CCNC(=O)N1C[C@@H](c2ccc(C(O)(C(F)(F)F)C(F)(F)F)cc2)[C@@](C)(c2ccccc2)C1 (racemic) |
| 60 | 84 | – | – | – | – | – | – | C[C@@]1(c2ccc(C(O)(C(F)(F)F)C(F)(F)F)cc2)CN(C(=O)NCc2ccccc2)C[C@@H]1c1ccccc1 (racemic) |
| 276 | 96 | – | – | – | – | – | – | C[C@]1(c2ccccc2)CN(CC(N)=O)C[C@H]1c1ccc(C(O)(C(F)(F)F)C(F)(F)F)cc1 (racemic) |
